What was measured:
[1] = Stability test under acidic condition; type: physicochemical; conditions: ethanol solution / Pharmacopoeia first liquid 1 to 1, 37° C., 24 hours, HPLC
Description: A 1 mg/ml ethanol solution of an evaluation compound and the test liquid first liquid of the disintegration test of The Pharmacopoeia of Japan (to be referred to as Pharmacopoeia first liquid hereinafter) were mixed at a ratio of 1 to 1 (0.5 ml for each) and stirred at 37° C. for 24 hours. Amount of the evaluation compound at 0 minute or after 24 hours was determined by an HPLC apparatus. Survival rate (%) of the evaluation compound was calculated by the following formula. Survival rate of evaluation compound (%)=amount of evaluation compound after 24 hours of treatment with Pharmacopoeia first liquid/amount of evaluation compound just after treatment with Pharmacopoeia first liquid×100 <HPLC Conditions> • Apparatus: A 1200 series (manufactured by Agilent Technologies, Inc.), • Column: YMC-Pack C4, A-802, 150×4.6 mm I.D., S-5 μm, 120 A (manufactured by YMC), • Mobile phase: A: water, B: acetonitrile, A/B: 35/65, • Column temperature: room temperature, • Flow rate: 1.0 mL/min.

[2] = Light stability test; type: physicochemical; conditions: 2500 Lux (D65 lamp), 25° C., HPLC
Description: After weighing 5 mg of an evaluation compound, it was put into a test tube made of glass which was then sealed with a stop cock. Said test tube was stored at 25° C. for 11 days or 20 days under irradiation of 2500 Lux (a D65 lamp was used as the light source). The evaluation compound after 11 days or 20 days of irradiation was determined by an HPLC apparatus. Survival rate (%) of the evaluation compound was calculated by the following formula. Survival rate of evaluation compound (%)=amount of evaluation compound after 11 days or 20 days of irradiation (mg)/weighed value of evaluation compound (mg)×100 <HPLC Conditions> • Apparatus: A 1200 series (manufactured by Agilent Technologies, Inc.), • Column: YMC-Pack C4, A-802, 150×4.6 mm I.D., S-5 μm, 120 A (manufactured by YMC), • Mobile phase: A: water, B: acetonitrile, A/B: 35/65, • Column temperature: room temperature, • Flow rate: 1.0 mL/min.

[3] = biological target: T1, human CRF receptor I (Homo sapiens, UniProt P34998); assay: Binding assay (125I-CRF, membrane fraction); conditions: 125I-CRF 0.25 nM, membrane fraction of CHO-K1 cells expressing human CRF receptor I, room temperature 2 hours
T1 construct: expressed in transfected cells; host or cells: CHO-K1
T1 sequence (P34998 24-415): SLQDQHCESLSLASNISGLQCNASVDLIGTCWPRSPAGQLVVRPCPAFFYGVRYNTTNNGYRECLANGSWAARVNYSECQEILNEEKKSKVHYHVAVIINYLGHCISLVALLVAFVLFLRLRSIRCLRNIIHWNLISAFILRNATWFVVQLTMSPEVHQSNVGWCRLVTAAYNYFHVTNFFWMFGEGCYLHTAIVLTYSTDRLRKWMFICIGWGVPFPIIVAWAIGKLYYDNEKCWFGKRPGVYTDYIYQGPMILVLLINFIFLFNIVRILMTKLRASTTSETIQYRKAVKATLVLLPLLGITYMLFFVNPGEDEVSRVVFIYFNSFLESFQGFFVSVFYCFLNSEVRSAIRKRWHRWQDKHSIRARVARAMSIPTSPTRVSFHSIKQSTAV
Description: The forced-expression cell strain of the human CRF receptor I (parent strain is CHO-K1 cell) was cultured until the cell was confluent and collected with a scraper. The collected cells were washed twice with PBS, and were suspended with an ice-colded binding assay buffer (Tris-HCl (50 mM, pH 7.0), EDTA (2 mM, pH 8.0), and MgCl2 (10 mM)). After fractured with a dounce-type homogenizer, the suspended cells were centrifuged at 10,000 g, and a membrane fraction was collected. The collected membrane fraction was resuspended with a little amount of the binding assay buffer, thereafter diluted with the binding assay buffer so as to have a concentration of 1 mg/mL. The obtained membrane fraction was used for a binding assay.
^125I-CRF was diluted with the binding assay buffer so as to have a concentration of 0.5 nM, whereby 50 μL of the diluted ^125I-CRF was added to a siliconized 1.5 mL tube. Next, evaluation compounds diluted at appropriate times, DMSO (for general binding), or 100 μM of CRF (for non-specific binding), was added to a […]. Finally, 50 μL of the membrane fraction was added thereto and the reaction was started (final concentration of ^125I-CRF was 0.25 nM). The tube was incubated at room temperature for 2 hours. After the reaction, the tube was centrifuged at 20,000 g in order to collect the membrane fraction. The supernatant was discarded, and the pellet was washed with an ice-colded PBS/0.01% TritonX-100. A membrane binding count was measured using a y counter. The specific binding count was obtained by subtracting the non-specific count from the measured count.

[4] = biological target: T1, human CRF receptor I; assay: Receptor antagonistic activity (cyclic AMP assay); type: cell-based; conditions: accumulated cyclic AMP, human/rat CRF stimulation, cells expressing human CRF receptor I, 37° C. 15 minutes
Description: The forced expression cell strain of the human CRF receptor I was cultured at 37° C. under 5% carbon dioxide and 95% air by using a Ham's F-12 medium (F-12 nutrient mixture) containing 10% bovine fetal serum and 1% antibiotic substance-antifungal agent. On the previous day before the cyclic AMP was measured, the cells were inoculated into a 96-well plate in an amount of 1×10^4 cell/well. On the measurement day, the cells were washed twice with a Ham's F-12 medium, whereby a solution of Ham's F-12 medium/1 mM 3-isobutyl-1-methylxanthine (assay medium) (178 μL) was added to each well. After the incubation at 37° C. for 15 minutes, the solutions (2 μL) of evaluation compound in various concentrations were added thereto, or DMSO (2 μL) was added to a CRF group and a blank group. An assay medium (20 μL) containing 10 nM human/rat CRF was added to wells of an evaluation compound group and the CRF group. An assay medium (20 μL) containing 0.00001% acetic acid was added to the blank group. Each group was further incubated at 37° C. for 15 minutes. The supernatant was removed and ice-colded to stop the reaction. Note that the reactions of 2 wells were the same in all reactions. The measurement for accumulated cyclic AMP amount in cells was carried out by using a cyclic AMP Biotrak enzyme immunoassay system (manufactured by GE Healthcare). The accumulated cyclic AMP amounts were calculated by subtracting mean values of corresponding 2 wells in the blank group from that of 2 wells. The IC50 values were calculated with non-linear regression analysis by defining logarithm concentration of the evaluation compound as independent variable and an accumulated cyclic AMP amount as dependent variable.

[5] = test system: Male Wistar rats; assay: Water aversive stress model in rats; type: in vivo, rat; conditions: 3 mg/kg, oral once 30 minutes before stress, 60 minutes after loading the water aversive stress
Description: Male Wistar rats of 7 weeks of age were used in the test. A platform of 8.5 cm in diameter and 11 cm in height was arranged in the center of a plastic container (30 cm in length, 45 cm in width, 37 cm in height), and water was filled therein to a depth of about 10 cm. Each rat was put on the platform, and the number of evacuations was counted 5, 30 and 60 minutes thereafter. To the vehicle group, 20% Wellsolve (registered trademark) was orally administered, and an evaluation compound having varied concentrations was orally administered to the evaluation compound group, once 30 minutes before loading the water aversive stress. The dose was set to be 5 ml/kg for both cases.

Row | residual ratio [1] | residual ratio after 20 days [2] | IC50 [3] | IC50 [4] | Compound | increase of the number of evacuations for the vehicle group [5]
1 | 90% | 93% | – | – | CCC(CC)c1cc(C)n2nc(-c3ccc(OC)cc3C)n(C)c(=O)c12 [Example 8(1), 5-(1-ethylpropyl)-2-(4-methoxy-2-methylphenyl)-3,7-dimethylpyrrolo[2,1-f][1,2,4]triazin-4(3H)-one] | –
2 | – | – | 4.5 nM | 2.1 nM | CCn1c(-c2ccc(SC)cc2Cl)nn2c(C)cc(C(C)C)c2c1=O [Example 14(2), 2-[2-chloro-4-(methylthio)phenyl]-3-ethyl-5-isopropyl-7-methylpyrrolo[2,1-f][1,2,4]triazin-4(3H)-one] | significantly inhibited

Reference: patent publication US8420810B2, “Bicyclic heterocyclic compound” (Ono Pharmaceutical, Co., Ltd., priority 2007, dated 2013)
